Results reported in US20240366589A1, “NHE3-BINDING COMPOUNDS AND METHODS FOR INHIBITING PHOSPHATE TRANSPORT” (Ardelyx, Inc., priority 2013, published 2024).
Several values for one entry are separate records, joined by “and”; a condition that tells them apart may be missing. Equal values may be shown once.

What was measured:
[1] = target: T1, Rat NHE3 (Rattus norvegicus, UniProt P26433); assay: Cell-based NHE3 activity under prompt conditions (OK cells, BCECF pH recovery), rat NHE3; conditions: prompt conditions; for IC50: read-out: Prompt Rat NHE3 pIC50 (converted)
T1 construct: expressed in transfected cells; host or cells: Opossum kidney (OK) cells (ATCC), electroporation
Outline: (§1)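 OK cells electroporated with rat or human NHE3 were loaded with 5 μM BCECF-AM in NH4Cl-HEPES (pH 7.4) for 30 min at room temperature, then acid-loaded 10 min in Na+-free choline-HEPES.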

[2] = target: T2, Human NHE3 (Homo sapiens, UniProt P48764); assay: Cell-based NHE3 activity under prompt conditions (OK cells, BCECF pH recovery), human NHE3; conditions: prompt conditions
T2 construct: expressed in transfected cells; host or cells: Opossum kidney (OK) cells (ATCC), electroporation
T2 sequence (P48764 26-834): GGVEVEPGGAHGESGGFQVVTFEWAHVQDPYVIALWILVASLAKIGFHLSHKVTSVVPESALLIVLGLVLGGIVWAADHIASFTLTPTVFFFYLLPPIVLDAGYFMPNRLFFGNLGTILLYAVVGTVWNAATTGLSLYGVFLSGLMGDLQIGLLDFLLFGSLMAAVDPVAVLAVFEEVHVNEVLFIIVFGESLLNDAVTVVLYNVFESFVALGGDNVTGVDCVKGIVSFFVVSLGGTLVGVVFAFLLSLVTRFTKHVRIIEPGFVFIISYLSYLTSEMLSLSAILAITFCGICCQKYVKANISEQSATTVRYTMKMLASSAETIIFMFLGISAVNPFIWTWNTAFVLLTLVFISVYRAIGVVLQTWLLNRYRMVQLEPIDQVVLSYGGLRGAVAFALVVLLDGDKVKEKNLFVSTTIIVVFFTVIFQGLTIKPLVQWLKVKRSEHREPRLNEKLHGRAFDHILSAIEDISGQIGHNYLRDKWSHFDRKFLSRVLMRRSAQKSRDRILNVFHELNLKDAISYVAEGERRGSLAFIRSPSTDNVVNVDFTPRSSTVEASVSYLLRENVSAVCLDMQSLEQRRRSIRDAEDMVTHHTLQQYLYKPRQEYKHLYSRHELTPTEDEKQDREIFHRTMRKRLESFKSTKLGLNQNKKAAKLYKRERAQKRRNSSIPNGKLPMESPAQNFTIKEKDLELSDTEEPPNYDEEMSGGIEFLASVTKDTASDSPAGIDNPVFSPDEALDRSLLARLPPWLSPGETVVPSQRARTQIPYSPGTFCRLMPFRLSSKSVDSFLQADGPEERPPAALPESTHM
Outline: as §1

[3] = test system: absorption of sodium from the intestinal lumen; assay: Inhibition of intestinal sodium absorption: urinary sodium (uNa) 16 h after single oral dose in rats; type: in vivo, rat; conditions: oral gavage, 16 h post-dose
Outline: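 Eight-week-old Sprague-Dawley rats (n=6) given single oral gavage of compound or water vehicle in the late afternoon, then kept in metabolic cages with chow and water ad libitum. Urine collected over 16 h; sodium quantified by ion chromatography and expressed as % of vehicle mean, compared by one-way ANOVA with Dunnett's test.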

[4] = test system: absorption of sodium from the intestinal lumen; assay: Fecal form score (FFS) 16 h after oral dose in rats; type: in vivo, rat; conditions: oral gavage, 16 h post-dose, scale 1-5
Outline: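 Eight-week-old Sprague-Dawley rats (n=6) dosed by oral gavage with compound or water vehicle between 4 and 5 PM, then housed in metabolic cages with food and water ad libitum. At 16 h, fecal form scored 1 (normal pellet) to 5 (liquid streams) by two observers; group mean reported.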

[5] = test system: phosphorus and calcium levels in the urine of rats; assay: Urinary excretion of phosphate and calcium in rats (16 h overnight urine); type: in vivo, rat; conditions: rats, oral gavage, 16 h post-dose

T1 sequence (P26433 29-831): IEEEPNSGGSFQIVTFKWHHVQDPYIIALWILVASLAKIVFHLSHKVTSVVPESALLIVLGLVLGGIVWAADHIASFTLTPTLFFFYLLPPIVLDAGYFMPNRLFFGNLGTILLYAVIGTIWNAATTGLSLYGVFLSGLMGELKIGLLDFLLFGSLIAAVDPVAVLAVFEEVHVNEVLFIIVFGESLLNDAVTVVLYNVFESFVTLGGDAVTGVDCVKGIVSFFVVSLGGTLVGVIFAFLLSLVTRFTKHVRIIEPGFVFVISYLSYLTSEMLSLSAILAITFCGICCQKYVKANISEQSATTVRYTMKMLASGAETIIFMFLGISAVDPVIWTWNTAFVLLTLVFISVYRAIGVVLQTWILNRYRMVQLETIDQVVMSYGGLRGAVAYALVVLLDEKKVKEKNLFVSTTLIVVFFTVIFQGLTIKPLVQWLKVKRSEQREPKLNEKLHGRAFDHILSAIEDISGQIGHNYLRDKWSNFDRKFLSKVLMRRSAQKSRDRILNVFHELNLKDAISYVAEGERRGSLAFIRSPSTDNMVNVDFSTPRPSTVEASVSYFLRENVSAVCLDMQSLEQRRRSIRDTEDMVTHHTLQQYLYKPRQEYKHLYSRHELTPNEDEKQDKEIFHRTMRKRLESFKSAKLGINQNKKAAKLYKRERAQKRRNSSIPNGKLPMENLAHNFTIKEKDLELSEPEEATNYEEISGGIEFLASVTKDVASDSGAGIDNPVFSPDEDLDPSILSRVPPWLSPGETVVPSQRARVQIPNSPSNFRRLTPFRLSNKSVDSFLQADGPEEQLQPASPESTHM

SMILES	Prompt Rat NHE3 pIC50 [1]	Prompt Human NHE3 pIC50 [2]	Urine Na % of control ([3]; dose 1 mg/kg)	Urine Na % of control ([3]; dose 3 mg/kg)	Urine Na % of control ([3]; dose 10 mg/kg)	Fecal Form Score average ([4]; dose 1 mg/kg)	Fecal Form Score average ([4]; dose 3 mg/kg)	Fecal Form Score average ([4]; dose 10 mg/kg)	Urine P % of control ([5]; dose 1 mg/kg)	Urine P % of control ([5]; dose 3 mg/kg)	Urine P % of control ([5]; dose 10 mg/kg)	IC50 [1]	Urine Na % of control ([3]; dose 30 mg/kg)	Fecal Form Score average ([4]; dose 30 mg/kg)	Urine P % of control ([5]; dose 30 mg/kg)
CN1Cc2c(Cl)cc(Cl)cc2[C@H](c2cccc(S(=O)(=O)NCCOCCOCCNC(=O)NCCC[N+](C)(CCCNC(=O)NCCOCCOCCNS(=O)(=O)c3cccc([C@@H]4CN(C)Cc5c(Cl)cc(Cl)cc54)c3)CCCNC(=O)NCCOCCOCCNS(=O)(=O)c3cccc([C@@H]4CN(C)Cc5c(Cl)cc(Cl)cc54)c3)c2)C1 [compound 109]	7.40	8.10	64%	52%	28%	1	2	4	65%	51%	52%	–	–	–	–
C/C(=C\c1cc(F)c(Oc2ccc(S(=O)(=O)NCCOCCOCCOCCNC(=O)COCC(=O)NCCOCCOCCOCCNS(=O)(=O)c3ccc(Oc4c(F)cc(/C=C(\C)C(=O)N=C(N)N)cc4F)cc3)cc2)c(F)c1)C(=O)N=C(N)N [compound 15]	7.30	7.90	–	–	77%	–	–	1	–	–	65%	–	–	–	–
CN1Cc2c(Cl)cc(Cl)cc2[C@H](c2cccc(S(=O)(=O)NCCOCCOCCN(C)C(=O)NCCCN(CCCNC(=O)N(C)CCOCCOCCNS(=O)(=O)c3cccc([C@@H]4CN(C)Cc5c(Cl)cc(Cl)cc54)c3)CCCNC(=O)N(C)CCOCCOCCNS(=O)(=O)c3cccc([C@@H]4CN(C)Cc5cc(Cl)cc(Cl)c54)c3)c2)C1 [compound 131]	–	7.20	–	38%	–	–	2	–	–	68%	–	794 nM	–	–	–
N=C(N)Nc1nc(-c2cccc(N3CCN(CCOCCOCCOCCNC(=O)CCOCCOCCOCCOCCOCCC(=O)NCCOCCOCCOCCN4CCN(c5cccc(-c6nc(NC(=N)N)nc7ccc(Cl)cc67)c5)CC4)CC3)c2)c2cc(Cl)ccc2n1 [compound 23]	6.87	8.55	–	–	73%	–	–	1	–	–	95%	–	–	–	–
O=C(NCCCCNC(=O)NCCOCCOCCOCCNS(=O)(=O)c1ccc(O[C@H]2c3ccccc3C[C@@H]2N2CCCCC2)cc1)NCCOCCOCCOCCNS(=O)(=O)c1ccc(O[C@H]2c3ccccc3C[C@@H]2N2CCCCC2)cc1 [compound 72]	–	8.25	82%	74%	33%	1	2	1	99%	115%	43%	5.01 nM	–	–	–
CC(=O)C(CCC(=O)NCCOCCOCCNS(=O)(=O)c1cccc([C@@H]2CN(C)Cc3c(Cl)cc(Cl)cc32)c1)(CCC(=O)NCCOCCOCCNS(=O)(=O)c1cccc([C@@H]2CN(C)Cc3c(Cl)cc(Cl)cc32)c1)CCC(=O)NCCOCCOCCNS(=O)(=O)c1cccc([C@@H]2CN(C)Cc3c(Cl)cc(Cl)cc32)c1 [compound 169]	6.50	6.20	–	42%	–	–	2	–	–	64%	–	–	–	–	–
NCCOCCOCCOCCN1CCN(c2ccc(-c3nc(N=C(N)N)nc4ccc(Cl)cc34)cc2)CC1 [compound 18]	7.25 and 6.90	7.35 and 6.90	–	–	74%	–	–	1	–	–	142%	–	41%	1	109%
O=C(NCCOCCOCCOCCNS(=O)(=O)c1ccc(O[C@H]2c3ccccc3C[C@@H]2N2CCCCC2)cc1)c1cccc(C(=O)NCCOCCOCCOCCNS(=O)(=O)c2ccc(O[C@H]3c4ccccc4C[C@@H]3N3CCCCC3)cc2)c1 [compound 118]	7.40	8.10	–	–	83%	–	–	1	–	–	131%	–	–	–	–
CN1Cc2c(Cl)cc(Cl)cc2[C@H](c2cccc(S(=O)(=O)NCCOCCOCCNC(=O)CCC(CCC(=O)NCCOCCOCCNS(=O)(=O)c3cccc([C@@H]4CN(C)Cc5c(Cl)cc(Cl)cc54)c3)(CCC(=O)NCCOCCOCCNS(=O)(=O)c3cccc([C@@H]4CN(C)Cc5c(Cl)cc(Cl)cc54)c3)NC(=O)Cn3ccnc3)c2)C1 [compound 154]	6.80	6.80	–	112%	–	–	1	–	–	65%	–	–	–	–	–
N=C(N)Nc1nc(-c2ccc(OCCOCCOCCOCCNC(=O)NCCOCCOCCNC(=O)CN(CCN(CC(=O)O)CC(=O)NCCOCCOCCNC(=O)NCCOCCOCCOCCOc3ccc(-c4nc(NC(=N)N)nc5ccc(Cl)cc45)cc3)CC(=O)O)cc2)c2cc(Cl)ccc2n1 [compound 35]	8.00	8.30	–	–	65%	–	–	1	–	–	57%	–	–	–	–
O=C(NCCCCNC(=O)NCCOCCOCCNS(=O)(=O)c1ccc(O[C@H]2c3cc(F)ccc3C[C@@H]2N2CCCCC2)cc1)NCCOCCOCCNS(=O)(=O)c1ccc(O[C@H]2c3cc(F)ccc3C[C@@H]2N2CCCCC2)cc1 [compound 140]	8.90	7.70	–	–	110%	–	–	1	–	–	121%	–	–	–	–
O=C(NCCCCNC(=O)NCCOCCOCCNS(=O)(=O)c1ccc(O[C@H]2c3cc(Cl)cc(Cl)c3C[C@@H]2N2CC[C@@H](O)C2)cc1)NCCOCCOCCNS(=O)(=O)c1ccc(O[C@H]2c3cc(Cl)cc(Cl)c3C[C@@H]2N2CC[C@@H](O)C2)cc1 [compound 87]	<5.00	8.20	–	54%	–	–	1	–	–	29%	–	–	–	–	–
N=C(N)Nc1nc(-c2ccc(N3CCN(CCOCCOCCOCCNC(=O)CCOCCOCCOCCOCCOCCC(=O)NCCOCCOCCOCCN4CCN(c5ccc(-c6nc(NC(=N)N)nc7ccc(Cl)cc67)cc5)CC4)CC3)cc2)c2cc(Cl)ccc2n1 [compound 24]	7.68	8.58	–	–	100%	–	–	1	–	–	80%	–	27%	3	70%
O=C(NCCOCCOCCNS(=O)(=O)c1ccc(O[C@H]2c3ccccc3C[C@@H]2N2CCCCC2)cc1)[C@H](O)[C@@H](O)C(=O)NCCOCCOCCNS(=O)(=O)c1ccc(O[C@H]2c3ccccc3C[C@@H]2N2CCCCC2)cc1 [compound 98]	8.40	8.10	–	–	83%	–	–	1	–	–	88%	–	–	–	–
CN(C)[C@H]1Cc2ccccc2[C@@H]1Oc1ccc(S(=O)(=O)NCCOCCOCCNC(=O)NCCCCNC(=O)NCCOCCOCCNS(=O)(=O)c2ccc(O[C@H]3c4ccccc4C[C@@H]3N(C)C)cc2)cc1 [compound 115]	<5.00	8.55	–	–	69%	–	–	1	–	–	60%	–	–	–	–
COCCNS(=O)(=O)c1cccc(C2CN(C)Cc3c(Cl)cc(Cl)cc32)c1 (centres unmarked) [compound 2]	6.70	6.50	–	–	115%	–	–	1	–	–	80%	–	–	–	–
